Assay results from the supplement of paper PMC10307832.

Experiments:
Experiment in all cases: relative viability (nuclei count vs DMSO), 5 days (fraction); higher = more cells survive
[1] = compound: C=CCNC1=C2C[C@@H](C)C[C@H](OC)[C@H](O)[C@@H](C)/C=C(\C)[C@H](OC(N)=O)[C@@H](OC)/C=C\C=C(/C)C(=O)NC(=CC1=O)C2=O [17-AAG] + CCNC(=O)c1noc(-c2cc(C(C)C)c(O)cc2O)c1-c1ccc(CN2CCOCC2)cc1 [Luminespib] (partner 0.01 µM)
How it was run: (§1)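 The day after seeding in 1536-well plates, lung cancer cell lines were treated by pin tool with a single drug, or with a fixed anchor-drug dose together with five library-drug doses (not always all listed) in √10 steps. After 5 days, a combined fix-and-stain solution (final 0.05% Triton X-100, 1% formaldehyde, 1 ug/ml Hoechst) was added. Nuclei counted on 4× images gave relative viability as treated counts over vehicle counts, reported as the median of duplicate plates.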

[2] = compound: C=CCNC1=C2C[C@@H](C)C[C@H](OC)[C@H](O)[C@@H](C)/C=C(\C)[C@H](OC(N)=O)[C@@H](OC)/C=C\C=C(/C)C(=O)NC(=CC1=O)C2=O [17-AAG] + Cc1cc(Nc2cc(N3CCN(C)CC3)nc(Sc3ccc(NC(=O)C4CC4)cc3)n2)n[nH]1 [Tozasertib] (partner 0.1 µM)
How it was run: as §1

[3] = compound: C=CCNC1=C2C[C@@H](C)C[C@H](OC)[C@H](O)[C@@H](C)/C=C(\C)[C@H](OC(N)=O)[C@@H](OC)/C=C\C=C(/C)C(=O)NC(=CC1=O)C2=O [17-AAG] + Cc1nc(NC(=O)N2CCC[C@H]2C(N)=O)sc1-c1ccnc(C(C)(C)C(F)(F)F)c1 [Alpelisib] (partner 2 µM)
How it was run: as §1

[4] = compound: C=CCNC1=C2C[C@@H](C)C[C@H](OC)[C@H](O)[C@@H](C)/C=C(\C)[C@H](OC(N)=O)[C@@H](OC)/C=C\C=C(/C)C(=O)NC(=CC1=O)C2=O [17-AAG] + Cc1nc(Nc2ncc(C(=O)Nc3c(C)cccc3Cl)s2)cc(N2CCN(CCO)CC2)n1 [Dasatinib] (partner 0.075 µM)
How it was run: as §1

Row | Cell Line | relative viability ([1]; first compound 0.00128 µM) | relative viability ([1]; first compound 0.004048 µM) | relative viability ([1]; first compound 0.0128 µM) | relative viability ([1]; first compound 0.04048 µM) | relative viability ([1]; first compound 0.128 µM) | relative viability ([2]; first compound 0.00128 µM) | relative viability ([2]; first compound 0.004048 µM) | relative viability ([2]; first compound 0.0128 µM) | relative viability ([2]; first compound 0.04048 µM) | relative viability ([2]; first compound 0.128 µM) | relative viability ([3]; first compound 0.00128 µM) | relative viability ([3]; first compound 0.004048 µM) | relative viability ([3]; first compound 0.0128 µM) | relative viability ([3]; first compound 0.04048 µM) | relative viability ([3]; first compound 0.128 µM) | relative viability ([4]; first compound 0.00128 µM) | relative viability ([4]; first compound 0.004048 µM) | relative viability ([4]; first compound 0.0128 µM) | relative viability ([4]; first compound 0.04048 µM) | relative viability ([4]; first compound 0.128 µM)
1 | NCI-H647 | 0.128 | 0.122 | 0.098 | 0.109 | 0.0989 | 0.419 | 0.222 | 0.0879 | 0.0995 | 0.0751 | 1.29 | 0.605 | 0.0949 | 0.107 | 0.0714 | 0.193 | 0.112 | 0.0468 | 0.107 | 0.0735
2 | NCI-H650 | 0.884 | 0.601 | 0.607 | 0.386 | 0.171 | 0.698 | 0.675 | 0.702 | 0.584 | 0.153 | 1.19 | 1.09 | 1.26 | 0.855 | 0.326 | 0.427 | 0.468 | 0.4 | 0.256 | 0.136
3 | NCI-H661 | 0.872 | 0.895 | 0.797 | 0.353 | 0.257 | 0.372 | 0.326 | 0.358 | 0.344 | 0.289 | 0.573 | 1 | 0.728 | 0.347 | 0.188 | 0.878 | 0.862 | 0.853 | 0.361 | 0.195
4 | NCI-H727 | 0.607 | 0.245 | 0.331 | 0.316 | 0.284 | 0.569 | 0.682 | 0.53 | 0.453 | 0.25 | 0.519 | 0.63 | 0.358 | 0.182 | 0.192 | 0.378 | 0.376 | 0.326 | 0.231 | 0.214
5 | NCI-H838 | 0.192 | 0.196 | 0.151 | 0.157 | 0.12 | 0.315 | 0.309 | 0.161 | 0.135 | 0.134 | 0.872 | 0.96 | 0.803 | 0.176 | 0.158 | 0.291 | 0.269 | 0.203 | 0.186 | 0.2
6 | NCI-H1355 | 0.649 | 0.685 | 0.457 | 0.337 | 0.18 | 0.554 | 0.583 | 0.543 | 0.555 | 0.167 | 0.867 | 0.86 | 0.884 | 0.86 | 0.327 | 0.708 | 0.725 | 0.327 | 0.325 | 0.156
7 | NCI-H1395 | 0.638 | 0.535 | 0.329 | 0.359 | 0.331 | 0.625 | 0.698 | 0.694 | 0.408 | 0.342 | 1.02 | 0.967 | 0.804 | 0.395 | 0.388 | 0.429 | 0.366 | 0.304 | 0.326 | 0.287
8 | NCI-H1437 | 1.09 | 0.818 | 0.631 | 0.206 | 0.19 | 0.4 | 0.477 | 0.296 | 0.311 | 0.164 | 0.959 | 0.929 | 0.88 | 0.107 | 0.122 | 0.39 | 0.447 | 0.226 | 0.143 | 0.0854
